Results on 12 molecules are retold here after ChEMBL document CHEMBL1201862, “PubChem BioAssay data set” (2004).

Each structure is given as a SMILES string.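 Growth conditions: 96-well plates. Treatment: test compound, 48 hours, 5 concentrations. Analysis: linear interpolation between bracketing concentrations; unreached endpoints set to highest concentration. GI50 is the concentration that inhibits growth by half.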 Activity calls are given as the source filed them. Cut-off read from the data, not from the text of the source: active = GI50 up to about 1.1 µM and inactive = higher.

Test systems include HOP-62; MCF7; CAKI-1; COLO 205; TK-10; NCI-H522; NCI-H460; SW-620; SN12C; HCT-15; SF-539; MDA-MB-435; SK-MEL-28; HL-60; MDA-MB-231; RPMI-8226; UACC-62; KM12; SNB-75; DU-145.
Common to all, as to test: inhibition of tumour cell growth, NCI panel, 48 h

For `CN(C)CC(CN(C)C)c1ccccn1`, the GI50 in the experiment with HOP-62, with MCF7, with CAKI-1, in the experiment with COLO 205, in the experiment with TK-10 and with NCI-H522 was > 100 µM (inactive) throughout. Moreover, the GI50 was > 100 µM (inactive) in the experiment with NCI-H460; > 100 µM (inactive) in the experiment on SW-620; > 100 µM (inactive) with SN12C; more than 100 µM with HCT-15; > 100 µM (inactive) in the experiment on SF-539; > 100 µM (inactive) in the experiment on MDA-MB-435. Moreover, the GI50 with SK-MEL-28, in the experiment on HL-60, with MDA-MB-231, with RPMI-8226, with UACC-62 and with KM12 was > 100 µM (inactive) in each case.
In the case of `COC(=O)c1ccccc1NCc1cc(O)ccc1O`, the GI50 was 28.6 µM (inactive) in the experiment on HOP-62; 17.6 µM (inactive) in the experiment with MCF7; 28.8 µM (inactive) with SNB-75; 19.4 µM (inactive) in the experiment with CAKI-1; 19.4 µM (inactive) in the experiment with COLO 205; 26.1 µM (inactive) in the experiment on TK-10. Besides, the GI50 is 2.63 µM (inactive) in the experiment on NCI-H522; 30.1 µM (inactive) in the experiment with NCI-H460; 24.2 µM (inactive) in the experiment with SW-620; 18.6 µM (inactive) with SN12C; 18.8 µM in the experiment with HCT-15; 17.7 µM (inactive) in the experiment with SF-539. The GI50 is 17.8 µM (inactive) in the experiment with MDA-MB-435; 50.8 µM (inactive) with DU-145; 19.1 µM (inactive) in the experiment with SK-MEL-28; 8 µM (inactive) in the experiment on HL-60; 10.5 µM (inactive) with RPMI-8226; 18.2 µM (inactive) in the experiment with UACC-62. Besides, the GI50 in the experiment on KM12 was 17.5 µM (inactive).
Consider `CCOC1=C2C(=O)OC(=O)C2C2CCCCC2=C1` (stereo unspecified), for which the GI50 in the experiment on HOP-62, with SNB-75, with CAKI-1, in the experiment on COLO 205, in the experiment on TK-10 and in the experiment with NCI-H522 was > 100 µM (inactive) in each case. Besides, the GI50 was > 100 µM (inactive) in the experiment on NCI-H460; > 100 µM (inactive) in the experiment on SW-620; > 100 µM (inactive) in the experiment with SN12C; more than 100 µM in the experiment with HCT-15; > 100 µM (inactive) in the experiment with SF-539; > 100 µM (inactive) with SK-MEL-28. For the same molecule, the GI50 in the experiment on HL-60, in the experiment with RPMI-8226, with UACC-62 and in the experiment on KM12 was > 100 µM (inactive) in each case.
Take `O=C(CO)C1CC2C=CC1C2` (stereo unspecified): the GI50 with HOP-62, in the experiment on SNB-75, in the experiment on CAKI-1, with COLO 205, in the experiment on TK-10 and in the experiment on NCI-H522 was > 100 µM (inactive) each time. Further, the GI50 in the experiment on NCI-H460 is > 100 µM (inactive); in the experiment on SW-620 it was > 100 µM (inactive); in the experiment with SN12C, > 100 µM (inactive); in the experiment on HCT-15, more than 100 µM; in the experiment on SF-539, > 100 µM (inactive); with SK-MEL-28, > 100 µM (inactive). The GI50 in the experiment on HL-60, in the experiment on RPMI-8226, with UACC-62 and in the experiment on KM12 was > 100 µM (inactive) each time.
For the molecule `COc1cc2c(c(OC)c1OC)-c1ccc(SC)c(=O)cc1C(CC(=O)Oc1ccc(F)cc1)C2` (stereo unspecified), the GI50 was 0.341 µM (active) in the experiment on HOP-62; 0.234 µM (active) in the experiment on SNB-75; 0.0676 µM (active) with CAKI-1; 0.133 µM (active) in the experiment with COLO 205; 40.8 µM (inactive) with TK-10; 0.116 µM (active) in the experiment on NCI-H522. For the same molecule, the GI50 is 0.253 µM (active) in the experiment on NCI-H460; 0.0918 µM (active) with SW-620; 0.367 µM (active) in the experiment with SN12C; 0.26 µM in the experiment with HCT-15; 0.117 µM (active) in the experiment on SF-539; 0.48 µM (active) in the experiment with SK-MEL-28. For the same molecule, the GI50 in the experiment with HL-60 is 0.043 µM (active); in the experiment on RPMI-8226, 0.296 µM (active); in the experiment on UACC-62, 0.129 µM (active); with KM12 it was 0.158 µM (active).
For the molecule `COc1cc2c(cc1OC)[Se]c1cc(OC)c(OC)cc1[Se]2`, the GI50 in the experiment with HOP-62 was > 10 µM (inactive); with SNB-75, 6.84 µM (inactive); in the experiment with CAKI-1, > 10 µM (inactive); with COLO 205 it was > 10 µM (inactive); with TK-10, > 10 µM (inactive); in the experiment on NCI-H522 it was 8.75 µM (inactive). The GI50 in the experiment with NCI-H460 was > 10 µM (inactive); in the experiment with SW-620, > 10 µM (inactive); with SN12C, > 10 µM (inactive); in the experiment with HCT-15 it was 5.3 µM; with SF-539, 90.8 µM (inactive); in the experiment on SK-MEL-28 it was > 10 µM (inactive). Further, the GI50 in the experiment on HL-60 was 3.93 µM (inactive); in the experiment on RPMI-8226, > 10 µM (inactive); in the experiment on UACC-62, > 10 µM (inactive); in the experiment on KM12, 6.15 µM (inactive).
As for `CCc1cc(CCC(=O)Nc2c(C)cccc2C)n[nH]1`, the GI50 in the experiment with HOP-62, in the experiment on SNB-75, in the experiment with CAKI-1, in the experiment on COLO 205, in the experiment with TK-10 and in the experiment with NCI-H522 was > 100 µM (inactive) throughout. The GI50 is > 100 µM (inactive) in the experiment with NCI-H460; > 100 µM (inactive) in the experiment with SW-620; > 100 µM (inactive) with SN12C; more than 100 µM in the experiment with HCT-15; > 100 µM (inactive) in the experiment on SF-539; > 100 µM (inactive) in the experiment on SK-MEL-28. Moreover, the GI50 in the experiment on HL-60, with RPMI-8226, in the experiment with UACC-62 and in the experiment on KM12 was > 100 µM (inactive) each time.
Take `N=C(c1ccc(-c2cn3cc(C(=N)N4CCCC4)ccc3n2)cc1)N1CCCC1`: the GI50 in the experiment on HOP-62, in the experiment with SNB-75, with CAKI-1, in the experiment with COLO 205, in the experiment on TK-10 and with NCI-H522 was > 100 µM (inactive) each time. The GI50 is > 100 µM (inactive) in the experiment on SW-620; > 100 µM (inactive) in the experiment with SN12C; more than 100 µM in the experiment with HCT-15; > 100 µM (inactive) with MDA-MB-435; > 100 µM (inactive) with DU-145; > 100 µM (inactive) in the experiment with SK-MEL-28. Further, the GI50 with HL-60 is 0.0303 µM (active); with MDA-MB-231, > 100 µM (inactive); with RPMI-8226, > 100 µM (inactive); with UACC-62 it was > 100 µM (inactive); in the experiment with KM12, > 100 µM (inactive).
For `CCN(CC)c1nc(N(C)C)c2ccc(OC)cc2n1`, the GI50 is 19.7 µM (inactive) in the experiment with HOP-62; 10.9 µM (inactive) with MCF7; 15.6 µM (inactive) in the experiment on SNB-75; 22.9 µM (inactive) in the experiment with CAKI-1; 7.55 µM (inactive) in the experiment with COLO 205; 24.5 µM (inactive) in the experiment with TK-10. The GI50 was 11.7 µM (inactive) in the experiment with NCI-H522; 10.3 µM (inactive) in the experiment on NCI-H460; 7.08 µM (inactive) with SW-620; 15 µM (inactive) with SN12C; 12.4 µM with HCT-15; 16.7 µM (inactive) with SF-539. Besides, the GI50 in the experiment on MDA-MB-435 was 10.5 µM (inactive); in the experiment on SK-MEL-28, 12.5 µM (inactive); in the experiment on HL-60, 3.64 µM (inactive); in the experiment with MDA-MB-231, 17.1 µM (inactive); in the experiment on RPMI-8226 it was 10.1 µM (inactive); with UACC-62 it was 6.65 µM (inactive). Besides, the GI50 in the experiment on KM12 is 14.7 µM (inactive).
In the case of `c1ccc2c(c1)OCCOCCOc1ccccc1OCCO2`, the GI50 is 67.1 µM (inactive) with HOP-62; 47.1 µM (inactive) in the experiment on SNB-75; 78 µM (inactive) in the experiment on CAKI-1; 50.5 µM (inactive) in the experiment with COLO 205; 45.6 µM (inactive) in the experiment with TK-10; 32.7 µM (inactive) in the experiment on NCI-H522. Moreover, the GI50 was 36.3 µM (inactive) in the experiment on NCI-H460; 26.9 µM (inactive) in the experiment on SW-620; 76 µM (inactive) in the experiment on SN12C; 43.9 µM in the experiment on HCT-15; > 100 µM (inactive) in the experiment on SF-539; > 100 µM (inactive) in the experiment with SK-MEL-28. Also, the GI50 with HL-60 was 24.8 µM (inactive); with RPMI-8226 it was 22.3 µM (inactive); in the experiment on UACC-62 it was 51.2 µM (inactive); with KM12, 35.2 µM (inactive).
`O=C(CSc1nnc[nH]1)C[P+](c1ccccc1)(c1ccccc1)c1ccccc1`: the GI50 is > 100 µM (inactive) in the experiment with HOP-62; 27.4 µM (inactive) in the experiment on SNB-75; 54.6 µM (inactive) in the experiment with CAKI-1; > 100 µM (inactive) with COLO 205; > 100 µM (inactive) in the experiment on TK-10; 4.25 µM (inactive) in the experiment on NCI-H522. The GI50 is 94.4 µM (inactive) in the experiment with NCI-H460; > 100 µM (inactive) with SW-620; > 100 µM (inactive) in the experiment with SN12C; more than 100 µM with HCT-15; > 100 µM (inactive) in the experiment on SF-539; > 100 µM (inactive) in the experiment with SK-MEL-28. Also, the GI50 is 31.7 µM (inactive) in the experiment with HL-60, > 10 µM (inactive) with RPMI-8226, 99.1 µM (inactive) in the experiment on UACC-62 and > 100 µM (inactive) in the experiment on KM12.
For `CCOC(=O)/C=C1\c2ccccc2C(=O)N1CC(=O)OCC`, the GI50 is > 100 µM (inactive) in the experiment on HOP-62; 77.1 µM (inactive) in the experiment on SNB-75; > 100 µM (inactive) in the experiment with CAKI-1; > 100 µM (inactive) in the experiment on COLO 205; > 100 µM (inactive) in the experiment on TK-10; > 100 µM (inactive) in the experiment with NCI-H522. Further, the GI50 in the experiment with SW-620 was > 100 µM (inactive); in the experiment on SN12C, > 100 µM (inactive); in the experiment with HCT-15 it was more than 100 µM; with MDA-MB-435, > 100 µM (inactive); in the experiment on DU-145 it was > 100 µM (inactive); in the experiment on SK-MEL-28, > 100 µM (inactive). Also, the GI50 in the experiment on MDA-MB-231, with RPMI-8226, with UACC-62 and in the experiment on KM12 was > 100 µM (inactive) each time.
